For series [1] the following is noted: human gut metagenome, 24 h, 2 µM.
Series [2] can be described thus: The drug is tested on Z-002 corresponding to rabbit gut metagenome with ENA study accession number: PRJEB37062 and ENA sample accession number: ERS12561802 for biotransformation under anaerobic condition. The drug concentrations were measured over 9 timepoints collected between 0 and 24 hours of incubation by liquid-chromatography-coupled mass spectrometry (LC–MS). The settings on record: 2 µM.

Series [3] is described as follows: The drug is tested on Z-022 corresponding to mouse gut metagenome with ENA study accession number: PRJEB37062 and ENA sample accession number: ERS12561821 for biotransformation under anaerobic condition. The drug concentrations were measured over 9 timepoints collected between 0 and 24 hours of incubation by liquid-chromatography-coupled mass spectrometry (LC–MS). The settings on record: 2 µM.

A short description of series [4]: The drug is tested on Z-028 corresponding to mouse gut metagenome with ENA study accession number: PRJEB37062 and ENA sample accession number: ERS12561827 for biotransformation under anaerobic condition. The drug concentrations were measured over 9 timepoints collected between 0 and 24 hours of incubation by liquid-chromatography-coupled mass spectrometry (LC–MS). The settings on record: 2 µM.

Series [5] can be described thus: The drug is tested on Z-005 corresponding to metagenome with ENA study accession number: PRJEB37062 and ENA sample accession number: ERS12561805 for biotransformation under anaerobic condition. The drug concentrations were measured over 9 timepoints collected between 0 and 24 hours of incubation by liquid-chromatography-coupled mass spectrometry (LC–MS). The settings on record: 2 µM.

Series [6] can be described thus: The drug is tested on WLS-052 corresponding to human gut metagenome with ENA study accession number: PRJEB37062 and ENA sample accession number: ERS12561747 for biotransformation under anaerobic condition. The drug concentrations were measured over 9 timepoints collected between 0 and 24 hours of incubation by liquid-chromatography-coupled mass spectrometry (LC–MS). To be noted: 2 µM.

Series [7] can be described thus: The drug is tested on Z-025 corresponding to rabbit gut metagenome with ENA study accession number: PRJEB37062 and ENA sample accession number: ERS12561824 for biotransformation under anaerobic condition. The drug concentrations were measured over 9 timepoints collected between 0 and 24 hours of incubation by liquid-chromatography-coupled mass spectrometry (LC–MS). To be noted: 2 µM.

Series [8] is described as follows: The drug is tested on Z-027 corresponding to metagenome with ENA study accession number: PRJEB37062 and ENA sample accession number: ERS12561826 for biotransformation under anaerobic condition. The drug concentrations were measured over 9 timepoints collected between 0 and 24 hours of incubation by liquid-chromatography-coupled mass spectrometry (LC–MS). The settings on record: 2 µM.

The conditions of series [9]: human gut metagenome, 24 h, 2 µM. This is another data set of the same source.
Series [10] can be described thus: The drug is tested on Z-024 corresponding to pig gut metagenome with ENA study accession number: PRJEB37062 and ENA sample accession number: ERS12561823 for biotransformation under anaerobic condition. The drug concentrations were measured over 9 timepoints collected between 0 and 24 hours of incubation by liquid-chromatography-coupled mass spectrometry (LC–MS). The settings on record: 2 µM.

The conditions of series [11]: human gut metagenome, 24 h, 2 µM. The source holds these as a separate data set.
For series [12] the following is noted: human gut metagenome, 24 h, 2 µM. This is another data set of the same source.
The nature of series [13]: The drug is tested on Z-013 corresponding to rabbit gut metagenome with ENA study accession number: PRJEB37062 and ENA sample accession number: ERS12561813 for biotransformation under anaerobic condition. The drug concentrations were measured over 9 timepoints collected between 0 and 24 hours of incubation by liquid-chromatography-coupled mass spectrometry (LC–MS). The settings on record: 2 µM.

For series [14] the following is noted: human gut metagenome, 24 h, 2 µM. This is another data set of the same source.
The nature of series [15]: The drug is tested on Z-007 corresponding to rat gut metagenome with ENA study accession number: PRJEB37062 and ENA sample accession number: ERS12561807 for biotransformation under anaerobic condition. The drug concentrations were measured over 9 timepoints collected between 0 and 24 hours of incubation by liquid-chromatography-coupled mass spectrometry (LC–MS). To be noted: 2 µM.

A short description of series [16]: The drug is tested on WLS-027 corresponding to human gut metagenome with ENA study accession number: PRJEB37062 and ENA sample accession number: ERS12561744 for biotransformation under anaerobic condition. The drug concentrations were measured over 9 timepoints collected between 0 and 24 hours of incubation by liquid-chromatography-coupled mass spectrometry (LC–MS). The settings on record: 2 µM.

The conditions of series [17]: human gut metagenome, 24 h, 2 µM. The source holds these as a separate data set.
The conditions of series [18]: human gut metagenome, 24 h, 2 µM. The source holds these as a separate data set.
Series [19] can be described thus: The drug is tested on WLS-038 corresponding to human gut metagenome with ENA study accession number: PRJEB37062 and ENA sample accession number: ERS12561745 for biotransformation under anaerobic condition. The drug concentrations were measured over 9 timepoints collected between 0 and 24 hours of incubation by liquid-chromatography-coupled mass spectrometry (LC–MS). The settings on record: 2 µM.

The nature of series [20]: The drug is tested on WLS-007 corresponding to human gut metagenome with ENA study accession number: PRJEB37062 and ENA sample accession number: ERS12561742 for biotransformation under anaerobic condition. The drug concentrations were measured over 9 timepoints collected between 0 and 24 hours of incubation by liquid-chromatography-coupled mass spectrometry (LC–MS). To be noted: 2 µM.
Note: call rule not given here.

Consider `O=C1NCC2(CCN(CCc3ccccc3)CC2)O1` [FENSPIRIDE], for which the “Bacterial Biotransformation” value in [1] was “Compound NOT metabolized”; in [2], “Compound metabolized”; in series [3], “Compound metabolized”; in series [4], “Compound NOT metabolized”; in [5] it was “Compound NOT metabolized”; in series [6], “Compound NOT metabolized”. Besides, the “Bacterial Biotransformation” value in series [7], in series [8], in series [9], in series [10], in series [11] and in series [12] was “Compound NOT metabolized” in each case. Also, the “Bacterial Biotransformation” value in series [13], in series [14], in series [15], in series [16], in series [17] and in series [18] was “Compound NOT metabolized” throughout. The “Bacterial Biotransformation” value in [19] and in series [20] was “Compound NOT metabolized” throughout.

Take `OC(Cn1cncn1)(Cn1cncn1)c1ccc(F)cc1F` [FLUCONAZOLE]: the “Bacterial Biotransformation” value is reported as “Compound NOT metabolized” in series [1]; “Compound metabolized” in series [2]; “Compound metabolized” in [3]; “Compound NOT metabolized” in series [4]; “Compound NOT metabolized” in [5]; “Compound NOT metabolized” in [6]. Besides, the “Bacterial Biotransformation” value is reported as “Compound NOT metabolized” in series [7]; “Compound NOT metabolized” in series [8]; “Compound metabolized” in [9]; “Compound metabolized” in series [10]; “Compound NOT metabolized” in [11]; “Compound NOT metabolized” in series [12]. Moreover, the “Bacterial Biotransformation” value in series [13] is “Compound NOT metabolized”; in series [14] it was “Compound NOT metabolized”; in series [15] it was “Compound NOT metabolized”; in [16] it was “Compound metabolized”; in series [17], “Compound NOT metabolized”; in series [18], “Compound metabolized”. The entries for the “Bacterial Biotransformation” value in [19] and in series [20] were “Compound NOT metabolized” and “Compound metabolized”, respectively.

On to `CNCCC(Oc1ccc(C(F)(F)F)cc1)c1ccccc1` (stereo not given) [FLUOXETINE], for which the “Bacterial Biotransformation” value in series [1], in series [2], in series [3], in [4], in [5] and in series [6] was “Compound NOT metabolized” in each case. In addition, the “Bacterial Biotransformation” value in [7], in [8], in [9], in [10], in series [11] and in series [12] was “Compound NOT metabolized” in each case. The “Bacterial Biotransformation” value in series [13] is given as “Compound NOT metabolized”; in series [14], “Compound NOT metabolized”; in series [15], “Compound NOT metabolized”; in series [16] it was “Compound NOT metabolized”; in [17], “Compound NOT metabolized”; in [18], “Compound metabolized”. Moreover, the “Bacterial Biotransformation” value in series [19] and in series [20] was “Compound NOT metabolized” in each case.

With `O=C(CCCN1CCC(O)(c2ccc(Cl)cc2)CC1)c1ccc(F)cc1` [HALOPERIDOL], the “Bacterial Biotransformation” value in series [1] is on record as “Compound NOT metabolized”; in series [2], “Compound metabolized”; in series [3], “Compound NOT metabolized”; in series [4], “Compound NOT metabolized”; in [5] it was “Compound NOT metabolized”; in series [6] it was “Compound NOT metabolized”. Further, the “Bacterial Biotransformation” value is recorded as “Compound NOT metabolized” in [7]; “Compound NOT metabolized” in series [8]; “Compound metabolized” in [9]; “Compound NOT metabolized” in series [10]; “Compound NOT metabolized” in [11]; “Compound NOT metabolized” in [12]. Moreover, the “Bacterial Biotransformation” value in series [13] is given as “Compound NOT metabolized”; in series [14] it was “Compound NOT metabolized”; in [15], “Compound NOT metabolized”; in series [16], “Compound metabolized”; in series [17], “Compound NOT metabolized”; in [18], “Compound NOT metabolized”. Moreover, the “Bacterial Biotransformation” value in [19] and in [20] was “Compound NOT metabolized” each time.

Consider `CCCCC1=NC2(CCCC2)C(=O)N1Cc1ccc(-c2ccccc2-c2nnn[nH]2)cc1` [IRBESARTAN], for which the “Bacterial Biotransformation” value in series [1] is listed as “Compound metabolized”; in [2] it was “Compound metabolized”; in series [3] it was “Compound NOT metabolized”; in [4] it was “Compound NOT metabolized”; in series [5] it was “Compound metabolized”; in series [6] it was “Compound metabolized”. For the same molecule, the “Bacterial Biotransformation” value is “Compound NOT metabolized” in series [7]; “Compound NOT metabolized” in series [8]; “Compound metabolized” in series [9]; “Compound metabolized” in [10]; “Compound NOT metabolized” in series [11]; “Compound metabolized” in [12]. The “Bacterial Biotransformation” value in [13] was “Compound NOT metabolized”; in series [14] it was “Compound metabolized”; in series [15], “Compound NOT metabolized”; in series [16], “Compound metabolized”; in [17] it was “Compound metabolized”; in series [18] it was “Compound metabolized”. Also, the “Bacterial Biotransformation” value in series [19] and in series [20] was “Compound metabolized” in each case.

The values above are taken from ChEMBL document CHEMBL5724914, “Linking interpersonal differences in gut microbiota composition and drug biotransformation activity” (2024).
